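The compound was tested at five concentrations on cells cultured in 96-well plates, with a 48-hour exposure period. GI50 marks 50% less growth.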 Activity calls are given as the source filed them. No stated cut-off is given here; in the data, active = GI50 up to about 1.1 µM and inactive = higher.
Tests used:
Experiment in all cases: NCI tumour cell line growth inhibition, 48 h
EKVX = tested on: EKVX
A549 = tested on: A549
NCI-H522 = tested on: NCI-H522
SK-MEL-2 = tested on: SK-MEL-2
SK-MEL-5 = tested on: SK-MEL-5
NCI-H23 = tested on: NCI-H23
A498 = tested on: A498
Malme-3M = tested on: Malme-3M
786-0 = tested on: 786-0
UACC-257 = tested on: UACC-257
PC-3 = tested on: PC-3
RXF 393 = tested on: RXF 393
TK-10 = tested on: TK-10
HOP-92 = tested on: HOP-92
COLO 205 = tested on: COLO 205
MDA-MB-435 = tested on: MDA-MB-435
RPMI-8226 = tested on: RPMI-8226
T47D = tested on: T47D
ACHN = tested on: ACHN

Measured: GI50

CC(=O)N[C@@H](Cc1ccc(O)cn1)C(=O)NCc1ccc(Cl)cc1
inactive: EKVX > 100 µM | A549 > 100 µM | NCI-H522 > 100 µM | SK-MEL-2 > 100 µM | SK-MEL-5 > 100 µM | NCI-H23 > 100 µM | A498 > 100 µM | Malme-3M > 100 µM | 786-0 > 100 µM | UACC-257 47.5 µM | PC-3 > 100 µM | RXF 393 > 100 µM | TK-10 > 100 µM | HOP-92 94.4 µM | COLO 205 > 100 µM | MDA-MB-435 > 100 µM | RPMI-8226 > 100 µM | T47D 94 µM | ACHN > 100 µM

CCC(O)(c1ccc(OC)cc1)C(c1ccc(OCc2ccccc2)cc1)c1ccc(OCc2ccccc2)cc1 (stereo not drawn)
inactive: EKVX > 100 µM | A549 > 100 µM | NCI-H522 > 100 µM | SK-MEL-2 > 100 µM | SK-MEL-5 > 100 µM | NCI-H23 > 100 µM | A498 > 100 µM | Malme-3M > 100 µM | 786-0 > 100 µM | UACC-257 > 100 µM | RXF 393 > 100 µM | TK-10 > 100 µM | HOP-92 > 100 µM | COLO 205 > 100 µM | RPMI-8226 > 100 µM | ACHN > 100 µM

CC(=O)c1ccc(N2CCN(C3=C(Cl)C(=O)c4c(O)ccc(O)c4C3=O)CC2)cc1
inactive: EKVX 18.7 µM | A549 17.5 µM | SK-MEL-5 5.73 µM | NCI-H23 2.92 µM | A498 17.6 µM | Malme-3M 11.4 µM | 786-0 14.2 µM | UACC-257 7.6 µM | PC-3 5.64 µM | RXF 393 3.02 µM | TK-10 5.14 µM | HOP-92 2.11 µM | COLO 205 2.67 µM | RPMI-8226 2.86 µM | T47D 2.91 µM

CC1=Nc2c(ccc3c2C(=O)c2ccccc2C3=O)NC(c2ccncc2)C1 (stereo not drawn)
inactive: EKVX > 10 µM | A549 13.3 µM | NCI-H522 6.82 µM | SK-MEL-2 > 10 µM | SK-MEL-5 > 100 µM | NCI-H23 > 10 µM | A498 23.8 µM | Malme-3M > 10 µM | 786-0 > 10 µM | UACC-257 > 10 µM | RXF 393 > 10 µM | TK-10 > 100 µM | HOP-92 > 10 µM | COLO 205 > 10 µM | RPMI-8226 4.84 µM | ACHN 6.75 µM

CO[C@H](c1ccccc1)[C@H](O)[C@](O)(c1ccccc1)P(=O)(OC)OC
inactive: EKVX > 100 µM | A549 > 100 µM | NCI-H522 > 100 µM | SK-MEL-2 > 100 µM | SK-MEL-5 > 100 µM | NCI-H23 > 100 µM | A498 > 100 µM | Malme-3M > 100 µM | 786-0 > 100 µM | UACC-257 > 100 µM | PC-3 > 100 µM | RXF 393 > 100 µM | TK-10 > 100 µM | HOP-92 > 100 µM | COLO 205 > 100 µM | MDA-MB-435 > 100 µM | RPMI-8226 > 100 µM | T47D > 100 µM | ACHN > 100 µM

C=CCC1(CN(C)C)CC/C(=C\c2ccc3c(c2)OCO3)C1=O (stereo not drawn)
inactive: EKVX 18.1 µM | A549 74.1 µM | NCI-H522 17.9 µM | SK-MEL-2 > 100 µM | SK-MEL-5 22.7 µM | NCI-H23 65.8 µM | A498 33.7 µM | Malme-3M > 100 µM | 786-0 44.8 µM | UACC-257 40.7 µM | RXF 393 59.8 µM | TK-10 > 100 µM | HOP-92 89.9 µM | COLO 205 23.7 µM | RPMI-8226 24.3 µM | ACHN 31.6 µM

COC1C=COC2(C)Oc3c(C)c(O)c4c(O)c(c(/C=N/N5CCN(N)CC5)c(O)c4c3C2=O)NC(=O)C(C)=CC=CC(C)C(O)C(C)C(O)C(C)C(OC(C)=O)C1C (stereo not drawn)
inactive: EKVX > 100 µM | A549 > 100 µM | NCI-H522 34 µM | SK-MEL-2 > 100 µM | SK-MEL-5 84.3 µM | NCI-H23 31.9 µM | A498 > 100 µM | Malme-3M > 100 µM | 786-0 > 100 µM | UACC-257 > 100 µM | RXF 393 34.7 µM | TK-10 > 100 µM | HOP-92 65.6 µM | COLO 205 37.8 µM | RPMI-8226 29.7 µM | ACHN > 100 µM

O=C1C(=O)N(c2cc(Cl)ccc2Cl)C(=O)C(=O)C1c1nc2ccccc2s1
inactive: EKVX > 100 µM | A549 > 100 µM | NCI-H522 > 100 µM | SK-MEL-2 > 100 µM | SK-MEL-5 > 100 µM | NCI-H23 > 100 µM | A498 > 100 µM | Malme-3M > 100 µM | 786-0 > 100 µM | UACC-257 98.2 µM | RXF 393 > 100 µM | TK-10 > 100 µM | HOP-92 24.4 µM | COLO 205 > 100 µM | RPMI-8226 > 100 µM | ACHN > 100 µM

OCC(O)COc1c(Cl)cc(Cl)cc1Cl (stereo not drawn)
inactive: EKVX > 100 µM | A549 > 100 µM | NCI-H522 > 100 µM | SK-MEL-2 > 100 µM | SK-MEL-5 > 100 µM | NCI-H23 > 57.4 µM | A498 > 100 µM | Malme-3M > 100 µM | 786-0 > 47.6 µM | UACC-257 > 100 µM | RXF 393 > 100 µM | TK-10 > 100 µM | HOP-92 > 100 µM | COLO 205 > 68.7 µM | RPMI-8226 > 44.9 µM | ACHN > 100 µM

CCCCN/C(=N\C#N)N(Cc1ccccc1)Cc1ccccc1
inactive: EKVX 28.2 µM | A549 37.2 µM | NCI-H522 15 µM | SK-MEL-2 15.2 µM | SK-MEL-5 13.3 µM | NCI-H23 24.6 µM | A498 17.3 µM | Malme-3M 37.2 µM | 786-0 29.9 µM | UACC-257 20.5 µM | RXF 393 45.2 µM | TK-10 31.6 µM | HOP-92 17.6 µM | COLO 205 18.4 µM | RPMI-8226 16.6 µM | ACHN 29.7 µM

CN(C)CCCOc1ccc(/C=C2/CCC/C(=C/c3ccc(OCCCN(C)C)cc3)C2=O)cc1
inactive: EKVX 3.95 µM | A549 3.3 µM | NCI-H522 1.8 µM | SK-MEL-2 2.03 µM | SK-MEL-5 2.23 µM | NCI-H23 1.74 µM | A498 1.85 µM | Malme-3M 1.78 µM | 786-0 1.3 µM | UACC-257 2.03 µM | RXF 393 1.61 µM | TK-10 2.67 µM | HOP-92 1.16 µM | COLO 205 1.73 µM | RPMI-8226 1.26 µM | ACHN 1.99 µM

CCCc1c(OC)c(=O)c2c(O)cc(OC)c3c4c(OC)cc(O)c5c(=O)c(OC)c(CCC)c(c1c23)c54
inactive: EKVX 2.58 µM | A549 1.32 µM | NCI-H522 1.53 µM | SK-MEL-2 6.64 µM | SK-MEL-5 3.29 µM | NCI-H23 7.94 µM | A498 10.6 µM | Malme-3M 2.43 µM | 786-0 2.84 µM | UACC-257 13.4 µM | PC-3 2.44 µM | TK-10 44.7 µM | HOP-92 5.69 µM | COLO 205 4.35 µM | MDA-MB-435 1.85 µM | RPMI-8226 2.5 µM | ACHN 4.51 µM

Reference: ChEMBL document CHEMBL1201862, “PubChem BioAssay data set” (2004)
